Experimental data taken from ChEMBL document CHEMBL1201862, “PubChem BioAssay data set” (2004).
Calls of active or inactive are those of the source.

How the values were obtained:
[1] = growth suppression of PTEN-null colon cells, dose response, cell-based, HCT116 PTEN knockout (AID 1047); format: functional;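 also: HCT116 colon tumor cells with PTEN knocked out; cells exposed to compound for 60 hours before readout; potency for loss of cell viability measured by luminescence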
[2] = target: Sphingosine 1-phosphate receptor 1 (Homo sapiens, UniProt P21453); experiment: Fluorescence-based counterscreen assay for S1P4 agonists: Cell-based dose response high throughput screening assay to identify agonists of the Sphingosine 1-Phosphate Receptor 1 (S1P1). [Related pubchem assays (depositor defined):AID1509, AID1523, AID1801, AID463107, AID463118, AID463119, AID463122, AID463123, AID463129, AID463225, AID504400, AID504460]; format: functional
Sequence of Sphingosine 1-phosphate receptor 1 (P21453 whole entry): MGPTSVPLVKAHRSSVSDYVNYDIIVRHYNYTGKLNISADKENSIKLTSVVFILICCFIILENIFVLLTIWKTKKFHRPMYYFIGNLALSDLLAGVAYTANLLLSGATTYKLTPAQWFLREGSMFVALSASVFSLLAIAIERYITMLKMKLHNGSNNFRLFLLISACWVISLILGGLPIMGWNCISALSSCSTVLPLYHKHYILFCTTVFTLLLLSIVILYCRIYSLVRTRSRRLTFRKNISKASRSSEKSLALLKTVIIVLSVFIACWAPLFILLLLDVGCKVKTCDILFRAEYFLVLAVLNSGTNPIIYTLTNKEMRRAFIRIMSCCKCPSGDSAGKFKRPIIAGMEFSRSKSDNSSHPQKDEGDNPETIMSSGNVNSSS

Protein Wnt-3a = Protein Wnt-3a (Mus musculus, UniProt P27467); experiment: Wnt3a-driven reporter signaling inhibition, dose response, selectivity assay for Gli-SUFU antagonist project, Wnt-LIGHT cells, luminescence (AID 651570); format: functional; settings: read-out: IC50_Mean;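 also: Wnt-LIGHT reporter cells stimulated with conditioned medium from Wnt3a-producing cells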
Sequence of Protein Wnt-3a (P27467 whole entry): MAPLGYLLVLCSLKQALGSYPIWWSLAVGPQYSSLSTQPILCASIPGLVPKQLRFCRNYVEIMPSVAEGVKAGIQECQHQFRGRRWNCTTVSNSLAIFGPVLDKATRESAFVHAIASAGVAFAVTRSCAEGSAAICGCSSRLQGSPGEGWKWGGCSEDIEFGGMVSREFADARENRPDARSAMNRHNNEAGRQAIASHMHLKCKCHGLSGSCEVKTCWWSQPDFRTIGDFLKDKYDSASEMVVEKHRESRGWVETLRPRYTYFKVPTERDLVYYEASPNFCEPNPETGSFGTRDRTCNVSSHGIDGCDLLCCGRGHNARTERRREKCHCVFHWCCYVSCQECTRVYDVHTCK

[3] = target: T1, Sphingosine 1-phosphate receptor 4 (Homo sapiens, UniProt O95977); experiment: Fluorescence dose response cell-based high throughput screening assay for agonists of the Sphingosine 1-Phosphate Receptor 4 (S1P4). [Related pubchem assays: 1509 (Primary screen.), 1523 (Confirmation screen in triplicates.)]; format: functional
T1 sequence (O95977 whole entry): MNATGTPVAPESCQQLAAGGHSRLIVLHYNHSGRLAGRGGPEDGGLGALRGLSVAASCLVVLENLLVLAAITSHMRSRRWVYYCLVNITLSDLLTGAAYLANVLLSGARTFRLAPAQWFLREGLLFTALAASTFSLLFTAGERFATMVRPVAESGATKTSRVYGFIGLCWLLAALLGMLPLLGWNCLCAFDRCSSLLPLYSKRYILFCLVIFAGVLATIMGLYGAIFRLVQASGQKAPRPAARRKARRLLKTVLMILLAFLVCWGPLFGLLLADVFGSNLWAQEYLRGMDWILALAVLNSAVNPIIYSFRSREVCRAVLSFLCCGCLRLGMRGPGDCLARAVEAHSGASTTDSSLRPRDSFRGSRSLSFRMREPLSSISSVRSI

[4] = growth suppression of beta-catenin-knockout colon cells, dose response, cell-based, HCT116, human colon tumor (AID 1045); format: functional;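 also: HCT116 colon tumor cells with beta catenin knocked out; cells exposed to compound for 60 hours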
[5] = cytotoxicity in HEK-293T cells, dose response, cytotoxicity control for TCR NF-kB inhibitor project, luminescence, T-cell screen hits (AID 489026); format: functional, cell-based;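 also: cells exposed to compound about 14 hours before the viability readout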
Cannabinoid receptor 1 [6] = target: T2, Cannabinoid receptor 1 (Homo sapiens, UniProt P21554); experiment: SAR analysis of agonists of the Cannabinoid Receptor 1 using an Image-Based Assay - Set 4. [Related pubchem assays (depositor defined):AID2013, AID2026]; format: functional
T2 sequence (P21554 whole entry): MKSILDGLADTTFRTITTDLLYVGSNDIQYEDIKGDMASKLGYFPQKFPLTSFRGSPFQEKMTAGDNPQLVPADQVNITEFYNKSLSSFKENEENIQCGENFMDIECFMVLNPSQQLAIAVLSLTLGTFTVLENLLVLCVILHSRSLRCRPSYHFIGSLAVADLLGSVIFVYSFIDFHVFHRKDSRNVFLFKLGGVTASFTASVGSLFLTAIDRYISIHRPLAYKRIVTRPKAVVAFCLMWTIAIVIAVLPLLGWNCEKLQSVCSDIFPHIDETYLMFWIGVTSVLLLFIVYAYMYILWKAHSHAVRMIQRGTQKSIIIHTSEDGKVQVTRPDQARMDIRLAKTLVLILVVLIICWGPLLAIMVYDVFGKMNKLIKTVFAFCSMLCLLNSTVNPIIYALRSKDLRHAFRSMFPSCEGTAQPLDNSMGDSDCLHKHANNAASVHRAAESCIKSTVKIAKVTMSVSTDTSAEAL

[7] = target: T3, G-protein coupled receptor 35 (Homo sapiens, UniProt Q9HC97); experiment: SAR analysis of Agonists of the GPR35 Receptor using an Image-Based Assay - Set 4. [Related pubchem assays (depositor defined):AID2013, AID2026]; format: functional
T3 sequence (Q9HC97 whole entry): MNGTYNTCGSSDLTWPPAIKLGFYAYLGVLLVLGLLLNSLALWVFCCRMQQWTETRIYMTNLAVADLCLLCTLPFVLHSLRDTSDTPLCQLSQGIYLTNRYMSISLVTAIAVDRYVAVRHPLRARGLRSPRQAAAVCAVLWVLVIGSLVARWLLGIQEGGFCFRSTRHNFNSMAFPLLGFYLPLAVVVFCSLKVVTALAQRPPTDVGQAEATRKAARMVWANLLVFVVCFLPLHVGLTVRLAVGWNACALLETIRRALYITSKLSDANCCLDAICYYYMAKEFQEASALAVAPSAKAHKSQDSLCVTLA

Cannabinoid receptor 1 [8] = target: T2, Cannabinoid receptor 1; experiment: SAR analysis of antagonists of the Cannabinoid Receptor 1 using an Image-Based Assay - Set 4. [Related pubchem assays (depositor defined):AID2013, AID2026]; format: functional
[9] = target: G-protein coupled receptor 55 (Homo sapiens, UniProt Q9Y2T6); experiment: SAR Analysis of Selective Antagonists of GPR55 using an Image-Based Assay - Set 4. [Related pubchem assays (depositor defined):AID2013, AID2026]; format: functional;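 also: antagonism of response to 5 µM lysophosphatidylinositol agonist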
Sequence of G-protein coupled receptor 55 (Q9Y2T6 whole entry): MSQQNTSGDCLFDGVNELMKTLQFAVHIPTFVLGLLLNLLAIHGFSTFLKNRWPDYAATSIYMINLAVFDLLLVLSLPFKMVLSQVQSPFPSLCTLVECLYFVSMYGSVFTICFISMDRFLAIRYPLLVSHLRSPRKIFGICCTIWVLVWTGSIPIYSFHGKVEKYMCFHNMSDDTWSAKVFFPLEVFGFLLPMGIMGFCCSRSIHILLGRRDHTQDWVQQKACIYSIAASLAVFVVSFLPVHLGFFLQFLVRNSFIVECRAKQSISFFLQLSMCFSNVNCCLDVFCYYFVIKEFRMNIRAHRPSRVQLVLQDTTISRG

Cannabinoid receptor 2 [10] = target: T4, Cannabinoid receptor 2 (Homo sapiens, UniProt P34972); experiment: SAR analysis of agonists of the Cannabinoid Receptor 2 using an Image-Based Assay - Set 3. [Related pubchem assays (depositor defined):AID2013, AID2026]; format: functional
T4 sequence (P34972 whole entry): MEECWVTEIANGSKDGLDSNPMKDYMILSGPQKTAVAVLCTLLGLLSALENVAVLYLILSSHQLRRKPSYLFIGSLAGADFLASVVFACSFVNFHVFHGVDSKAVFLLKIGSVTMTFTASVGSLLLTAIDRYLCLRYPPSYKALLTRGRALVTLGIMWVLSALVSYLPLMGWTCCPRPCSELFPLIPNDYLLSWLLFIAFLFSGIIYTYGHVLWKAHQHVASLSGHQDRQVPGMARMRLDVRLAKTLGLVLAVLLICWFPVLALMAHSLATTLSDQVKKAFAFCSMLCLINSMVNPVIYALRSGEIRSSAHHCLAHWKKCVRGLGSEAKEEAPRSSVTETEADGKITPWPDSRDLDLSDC

Cannabinoid receptor 2 [11] = target: T4, Cannabinoid receptor 2; experiment: SAR analysis of antagonists of the Cannabinoid Receptor 2 using an Image-Based Assay - Set 3. [Related pubchem assays (depositor defined):AID2013, AID2026]; format: functional
[12] = target: T3, G-protein coupled receptor 35; experiment: SAR analysis of Antagonists of the GPR35 Receptor using an Image-Based Assay - Set 6. [Related pubchem assays (depositor defined):AID2013, AID2026]; format: functional
[13] = target: T5, Dual specificity protein phosphatase 6 (Rattus norvegicus, UniProt Q64346); format: functional;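 also: confirmatory in vitro dose-response testing of MKP-3 inhibition; recombinant His-tagged MKP-3 made in E. coli BL21 with OMFP substrate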
T5 sequence (Q64346 whole entry): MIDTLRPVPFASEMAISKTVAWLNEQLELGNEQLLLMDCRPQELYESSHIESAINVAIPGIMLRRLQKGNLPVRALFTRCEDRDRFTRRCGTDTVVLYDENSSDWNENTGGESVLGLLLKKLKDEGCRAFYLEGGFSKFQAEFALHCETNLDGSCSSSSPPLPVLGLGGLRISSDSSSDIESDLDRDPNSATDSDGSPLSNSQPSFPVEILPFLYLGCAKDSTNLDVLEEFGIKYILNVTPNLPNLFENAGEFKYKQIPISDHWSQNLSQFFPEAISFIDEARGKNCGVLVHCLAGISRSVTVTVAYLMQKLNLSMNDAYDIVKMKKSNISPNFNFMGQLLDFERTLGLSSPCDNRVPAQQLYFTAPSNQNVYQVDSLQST

[14] = target: T6, Tyrosine-protein phosphatase non-receptor type 7 (Homo sapiens, UniProt P35236); experiment: redox-dependent HePTP inhibition, mechanism study, biochemical, fluorescence (AID 2068); format: functional
T6 sequence (P35236 whole entry): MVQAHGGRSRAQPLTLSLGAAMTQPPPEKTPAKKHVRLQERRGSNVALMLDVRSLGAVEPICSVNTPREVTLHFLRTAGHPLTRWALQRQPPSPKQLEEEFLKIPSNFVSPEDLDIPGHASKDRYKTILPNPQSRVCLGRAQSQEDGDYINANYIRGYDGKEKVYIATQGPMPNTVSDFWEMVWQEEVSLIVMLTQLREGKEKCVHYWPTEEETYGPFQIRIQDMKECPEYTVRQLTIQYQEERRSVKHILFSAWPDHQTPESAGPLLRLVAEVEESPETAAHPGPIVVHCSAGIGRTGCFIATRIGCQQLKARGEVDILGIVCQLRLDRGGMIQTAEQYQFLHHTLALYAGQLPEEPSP

[15] = target: T6, Tyrosine-protein phosphatase non-receptor type 7; experiment: HePTP (PTPN7) phosphatase inhibitor potency, SAR follow-up, biochemical, set 2 (AID 449736); format: functional
[16] = target: T7, Tyrosine-protein phosphatase non-receptor type 22 (Homo sapiens, UniProt Q9Y2R2); experiment: LYP (PTPN22) phosphatase inhibitor potency, SAR follow-up, biochemical, pCAP fluorogenic substrate, fluorescence, set 3 (AID 449727); format: functional
T7 sequence (Q9Y2R2 whole entry): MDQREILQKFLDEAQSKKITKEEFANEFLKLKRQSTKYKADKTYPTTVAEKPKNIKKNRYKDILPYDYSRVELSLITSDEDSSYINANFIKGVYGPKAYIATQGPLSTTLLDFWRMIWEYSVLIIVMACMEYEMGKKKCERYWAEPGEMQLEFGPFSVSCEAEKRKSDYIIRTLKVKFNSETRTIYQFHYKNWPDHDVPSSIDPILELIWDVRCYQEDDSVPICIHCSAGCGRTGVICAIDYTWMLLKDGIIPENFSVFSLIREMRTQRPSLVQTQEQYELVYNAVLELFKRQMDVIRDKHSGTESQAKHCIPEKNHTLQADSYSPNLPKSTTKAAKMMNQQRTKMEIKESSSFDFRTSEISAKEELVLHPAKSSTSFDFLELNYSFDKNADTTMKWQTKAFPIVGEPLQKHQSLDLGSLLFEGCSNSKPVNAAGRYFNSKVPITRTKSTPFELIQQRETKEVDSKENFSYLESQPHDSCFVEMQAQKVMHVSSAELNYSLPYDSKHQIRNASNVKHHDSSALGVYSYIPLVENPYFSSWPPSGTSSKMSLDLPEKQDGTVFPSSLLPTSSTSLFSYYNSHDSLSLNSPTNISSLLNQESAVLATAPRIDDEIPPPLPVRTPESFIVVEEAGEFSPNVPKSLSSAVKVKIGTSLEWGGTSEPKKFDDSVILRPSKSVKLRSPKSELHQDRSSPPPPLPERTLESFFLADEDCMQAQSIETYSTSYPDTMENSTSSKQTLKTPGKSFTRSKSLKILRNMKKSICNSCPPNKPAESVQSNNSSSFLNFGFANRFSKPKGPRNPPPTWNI

[17] = target: Dual specificity protein phosphatase 3 (Homo sapiens, UniProt P51452); experiment: SAR VHR1 Fluorescent Assay for In Vitro dose response studies Set 2. [Related pubchem assays (depositor defined):AID1654, AID1661, AID1878]; format: functional
Sequence of Dual specificity protein phosphatase 3 (P51452 whole entry): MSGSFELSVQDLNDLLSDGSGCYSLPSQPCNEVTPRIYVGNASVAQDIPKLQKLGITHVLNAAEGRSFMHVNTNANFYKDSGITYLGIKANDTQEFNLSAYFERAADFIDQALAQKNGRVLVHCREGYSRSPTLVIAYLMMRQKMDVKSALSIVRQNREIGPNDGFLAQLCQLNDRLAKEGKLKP

[18] = target: Tyrosine-protein phosphatase non-receptor type 12 (Homo sapiens, UniProt Q05209); experiment: SAR Selectivity Analysis of small molecule inhibitors of PEST using pCAP in a fluorescence assay. [Related pubchem assays (depositor defined):AID1779, AID1784, AID2135]; format: functional
Sequence of Tyrosine-protein phosphatase non-receptor type 12 (Q05209 whole entry): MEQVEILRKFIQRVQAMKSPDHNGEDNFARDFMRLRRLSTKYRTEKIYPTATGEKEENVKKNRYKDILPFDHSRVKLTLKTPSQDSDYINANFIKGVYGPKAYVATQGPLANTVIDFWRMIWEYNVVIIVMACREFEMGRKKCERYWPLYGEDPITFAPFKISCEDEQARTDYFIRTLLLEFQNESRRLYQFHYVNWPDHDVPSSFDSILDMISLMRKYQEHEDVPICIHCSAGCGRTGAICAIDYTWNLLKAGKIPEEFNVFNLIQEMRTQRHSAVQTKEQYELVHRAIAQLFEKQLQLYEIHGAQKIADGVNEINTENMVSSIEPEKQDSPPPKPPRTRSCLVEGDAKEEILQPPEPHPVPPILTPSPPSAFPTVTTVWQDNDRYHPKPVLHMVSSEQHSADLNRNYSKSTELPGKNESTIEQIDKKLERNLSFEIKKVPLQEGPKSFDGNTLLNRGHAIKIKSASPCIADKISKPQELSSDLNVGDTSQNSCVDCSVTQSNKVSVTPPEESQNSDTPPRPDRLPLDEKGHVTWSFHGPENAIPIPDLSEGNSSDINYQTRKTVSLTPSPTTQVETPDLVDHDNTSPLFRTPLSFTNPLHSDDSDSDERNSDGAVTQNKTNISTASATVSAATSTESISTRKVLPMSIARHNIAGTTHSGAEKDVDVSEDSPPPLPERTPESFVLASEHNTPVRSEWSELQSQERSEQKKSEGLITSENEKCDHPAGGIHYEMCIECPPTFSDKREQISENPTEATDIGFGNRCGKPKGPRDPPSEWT

[19] = target: T7, Tyrosine-protein phosphatase non-receptor type 22; experiment: SAR LYP1 Fluorescent Assay using OMFP substrate for In Vitro dose response studies - Set 3. [Related pubchem assays (depositor defined):AID1779, AID1784, AID2140, AID2686]; format: functional

Question: What does the source list for COc1ccc(-c2c(C#N)c(N)nc3c2CCc2ccccc2-3)cc1OC?
Answer: EC50 [1]: 5.19 µM (active); EC50 [2]: > 49.8 µM (inactive); IC50 (Protein Wnt-3a): 17.9 µM (active); EC50 [3]: 43.6 µM (not active); EC50 [4]: 5.59 µM (active); IC50 [5]: 38.1 µM (inactive)

Question: Which EC50 (Cannabinoid receptor 1 [6]) does the source give for CCOc1ccc(CC(=O)N2CCC(n3nc(-c4ccccc4)oc3=O)CC2)cc1 here?
Answer: > 32 µM (inactive)

Question: And the EC50 [7]?
Answer: > 32 µM (inactive)

Question: And the IC50 (Cannabinoid receptor 1 [8])?
Answer: 7.68 µM (active)

Question: And the IC50 [9]?
Answer: > 32 µM (inactive)

Question: What about the EC50 (Cannabinoid receptor 2 [10]) of the same molecule?
Answer: > 32 µM (inactive)

Question: What about the IC50 (Cannabinoid receptor 2 [11]) of the same molecule?
Answer: > 32 µM (inactive)

Question: What about the IC50 [12] of the same molecule?
Answer: > 32 µM (inactive)

Question: With COc1cc(/C=C2/S/C(=N\c3cccc(Br)c3)NC2=O)ccc1OCC(=O)O as the molecule, how does the IC50 [13] read?
Answer: > 100 µM (inactive)

Question: What about the IC50 [14] of the same molecule?
Answer: 7.44 µM (active)

Question: And the IC50 [15]?
Answer: 1.57 µM (active)

Question: What about the IC50 [16] of the same molecule?
Answer: 32 µM (active)

Question: And the IC50 [17]?
Answer: > 100 µM (inactive)

Question: And the IC50 [18]?
Answer: 7.86 µM (active)

Question: What about the IC50 [19] of the same molecule?
Answer: 68.8 µM (active)
